The values below are quoted from earlier work in patent publication US20240277629A1, “USE OF THYROID HORMONE T4 IN A HIGH VERSATILITY TREATMENT IN PATIENTS TAKING PROTON PUMP INHIBITORS” (ALTERGON S.A., priority 2021, published 2024).

The structures appear in SMILES notation.

The conditions of the series: patients under therapy with PPIs (Centanni et al. 2006).

As for `N[C@@H](Cc1cc(I)c(Oc2cc(I)c(O)c(I)c2)c(I)c1)C(=O)O` [T4, levothyroxine], the “Increase of daily dose of T4 needed to obtain the desired blood levels of thyroid hormone” value is reported as 37%.
